# Data: US7662767B2, “Polynucleotide intercalator interceptors and inhibitors” (Materials Evolution and Development USA, Inc., priority 2000, dated 2010)
# “And” between values parts separate entries of the source, which are not always exact repeats. Equal values may be shown once.
# Tests used:
# [1] = tested on: chicken erythrocyte nuclear chromatin; test: Acridine orange staining of chicken erythrocyte nuclear chromatin, fluorescence microscopy; format: binding
# Method: Chicken erythrocytes were chosen as one implementation of this invention. These nucleated cells have mature erythrocytes with no RNA. Blood was taken from a mature chicken. The blood was drawn from a wing vein into 50 ml glass heparin containing tubes to prevent clotting. This blood was used to make smears on microscope slides. These blood smeared slides were allowed to dry at room temperature and were stored in microscope boxes.
# Solutions of AO were prepared at 5 mM and 10 μM concentrations in distilled water. Microscope slides smeared with chicken erythrocytes were stained by placing the slide into a glass slide holder containing 50 ml of AO solution under static conditions from 2 min to 30 min, followed by three 10 second rinses in distilled water before drying at room temperature. […] Processed slides were stored in the dark then read and photomicrographs taken (Zeiss Model 63 Microscope, 1600 ASA Kodak film) soon after removal from the dark to avoid photobleaching.
# In the example shown in Table 4-1, the chicken erythrocytes were smeared and dried on a microscope slide prior to exposure to two different concentrations of AO (10 μM and 5 mM), rinsed with distilled water, and allowed to dry. Erythrocytes were examined with fluorescence microscopy and the color of the nuclei recorded. […]
# herring sperm dsDNA = test: Acridine orange with dsDNA, spectrofluorometry λem 530 nm; format: binding; conditions: AO-DNA, AO [2 μM], DNA [>20 μM], hydrochloride
# Method: In another implementation, a spectrofluorometric analysis of the interaction of AO with dsDNA at λex 485 nm and λem 530 nm and 635 nm was also conducted. The interaction of DNA with lower concentrations of AO [2 μM] mimicked the results found at the higher AO concentration of 20 μM for bp:AO ratios of 4:1 and above. The association curve for AO over a series of steadily increasing DNA concentrations ranging from […] of DNA is shown in FIG. 3-8.
# The example shown in FIG. 3-8 illustrating the effect of NaCl on the fluorescence of 2 μM AO was determined over a range of bp:AO ratios from 4 to 62.5. The excitation wavelength was 485 nm while emission was monitored at 530 nm. The association constant for 2 μM AO with DNA was determined to be 31,990±310 M^−1 (R^2=0.98) in the absence of NaCl and 31,690±498 M^−1 (R^2=0.96) in the presence of NaCl. Error bars are shown to denote confidence intervals at 95% unless hidden by a data point symbol. The delta fluorescence values were obtained by subtracting the background fluorescence of HEPES buffered AO at 2 μM in the absence of DNA. The association constant for the interaction of AO with DNA was determined to be 31,990±3,190 M^−1.
structure (smiles),measurement,setting,value
"CN(C)c1ccc2cc3ccc(N(C)C)cc3nc2c1.Cl [AO, 3,6-bis[dimethylamino]acridine hydrochloride]",Fluorescent Color,[1]; AO 10 μM,Green
same,Fluorescent Color,[1]; AO 5 mM,Red
same,K ± S.D.,herring sperm dsDNA; Fluorescence plus NaCl,"31,690±498 M^−1 and 31,690±4,980 M^−1"
same,K ± S.D.,"herring sperm dsDNA; Fluorescence plus NaCl, listed as AO-DNA","31,690 ± 4,890 M^−1"
same,K ± S.D.,"herring sperm dsDNA; Fluorescence, absence of NaCl","31,990±310 M^−1 and 31,990±3,190 M^−1"
same,K ± S.D.,"herring sperm dsDNA; Fluorescence, absence of NaCl, listed as AO-DNA","31,990 ± 3,190 M^−1"
